Activity calls are given as the source filed them. The rule behind the calls is not given here.
What was measured:
[1] = test system: Mus musculus; assay: Anticonvulsant activity in Mus musculus CF1 albino (mouse) assessed as protection against maximal electroshock-induced seizures at 30 mg/kg, ip measured at 0.5 hr; type: functional, organism-based; parameters: dose 30 mg/kg
[2] = test system: Mus musculus; assay: Neurotoxicity in Mus musculus CF1 albino (mouse) assessed as minimal motor impairment at 300 mg/kg, ip measured at 0.5 hr by rotorod test; type: toxicity, organism-based; parameters: dose 300 mg/kg, route intraperitoneal; details: in vivo
[3] = test system: Mus musculus; assay: Anticonvulsant activity in Mus musculus CF1 albino (mouse) assessed as protection against maximal electroshock-induced seizures at 100 mg/kg, ip measured at 0.5 hr; type: functional, organism-based; parameters: dose 100 mg/kg
[4] = test system: Mus musculus; assay: Anticonvulsant activity in Mus musculus CF1 albino (mouse) assessed as protection against maximal electroshock-induced seizures at 300 mg/kg, ip measured at 4 hr; type: functional, organism-based; parameters: dose 300 mg/kg
[5] = test system: Mus musculus; assay: Anticonvulsant activity in Mus musculus CF1 albino (mouse) assessed as protection against subcutaneous metrazol-induced seizures at 100 mg/kg, ip measured at 0.5 hr; type: functional, organism-based; parameters: dose 100 mg/kg
[6] = test system: Mus musculus; assay: Anticonvulsant activity in Mus musculus CF1 albino (mouse) assessed as protection against subcutaneous metrazol-induced seizures at 300 mg/kg, ip measured at 0.5 hr; type: functional, organism-based; parameters: dose 300 mg/kg
[7] = test system: Mus musculus; assay: Anticonvulsant activity in Mus musculus CF1 albino (mouse) assessed as protection against electrically-induced seizure at 100 mg/kg, ip measured at 2 hr by 6Hz psychomotor seizure test; type: functional, organism-based; parameters: dose 100 mg/kg
[8] = test system: Mus musculus; assay: Neurotoxicity in Mus musculus CF1 albino (mouse) assessed as minimal motor impairment at 100 mg/kg, ip measured at 4 hr by rotorod test; type: toxicity, organism-based; parameters: dose 100 mg/kg, route intraperitoneal; details: in vivo
[9] = test system: Mus musculus; assay: Anticonvulsant activity in Mus musculus CF1 albino (mouse) assessed as protection against subcutaneous metrazol-induced seizures at 100 mg/kg, ip measured at 4 hr; type: functional, organism-based; parameters: dose 100 mg/kg
[10] = test system: Mus musculus; assay: Anticonvulsant activity in Mus musculus CF1 albino (mouse) assessed as protection against maximal electroshock-induced seizures at 100 mg/kg, ip measured at 4 hr; type: functional, organism-based; parameters: dose 100 mg/kg
[11] = test system: Mus musculus; assay: Neurotoxicity in Mus musculus CF1 albino (mouse) assessed as minimal motor impairment at 100 mg/kg, ip measured at 0.5 hr by rotorod test; type: toxicity, organism-based; parameters: dose 100 mg/kg, route intraperitoneal; details: in vivo
[12] = test system: Mus musculus; assay: Anticonvulsant activity in Mus musculus CF1 albino (mouse) assessed as protection against subcutaneous metrazol-induced seizures at 30 mg/kg, ip measured at 0.5 hr; type: functional, organism-based; parameters: dose 30 mg/kg
[13] = test system: Mus musculus; assay: Anticonvulsant activity in Mus musculus CF1 albino (mouse) assessed as protection against maximal electroshock-induced seizures at 30 mg/kg, ip measured at 4 hr; type: functional, organism-based; parameters: dose 30 mg/kg
[14] = test system: Mus musculus; assay: Anticonvulsant activity in Mus musculus CF1 albino (mouse) assessed as protection against maximal electroshock-induced seizures at 300 mg/kg, ip measured at 0.5 hr; type: functional, organism-based; parameters: dose 300 mg/kg
[15] = test system: Mus musculus; assay: Anticonvulsant activity in Mus musculus CF1 albino (mouse) assessed as protection against subcutaneous metrazol-induced seizures at 30 mg/kg, ip measured at 4 hr; type: functional, organism-based; parameters: dose 30 mg/kg
[16] = test system: Mus musculus; assay: Neurotoxicity in Mus musculus CF1 albino (mouse) assessed as minimal motor impairment at 30 mg/kg, ip measured at 4 hr by rotorod test; type: toxicity, organism-based; parameters: dose 30 mg/kg, route intraperitoneal; details: in vivo
[17] = test system: Mus musculus; assay: Neurotoxicity in Mus musculus CF1 albino (mouse) assessed as minimal motor impairment at 30 mg/kg, ip measured at 0.5 hr by rotorod test; type: toxicity, organism-based; parameters: dose 30 mg/kg, route intraperitoneal; details: in vivo
[18] = test system: Mus musculus; assay: Anticonvulsant activity in Mus musculus CF1 albino (mouse) assessed as protection against electrically-induced seizure at 100 mg/kg, ip measured at 4 hr by 6Hz psychomotor seizure test; type: functional, organism-based; parameters: dose 100 mg/kg
[19] = test system: Mus musculus; assay: Anticonvulsant activity in Mus musculus CF1 albino (mouse) assessed as protection against subcutaneous metrazol-induced seizures at 300 mg/kg, ip measured at 4 hr; type: functional, organism-based; parameters: dose 300 mg/kg
[20] = test system: Mus musculus; assay: Neurotoxicity in Mus musculus CF1 albino (mouse) assessed as minimal motor impairment at 300 mg/kg, ip measured at 4 hr by rotorod test; type: toxicity, organism-based; parameters: dose 300 mg/kg, route intraperitoneal; details: in vivo
[21] = test system: Mus musculus; assay: Anticonvulsant activity in Mus musculus CF1 albino (mouse) assessed as protection against electrically-induced seizure at 100 mg/kg, ip measured at 1 hr by 6Hz psychomotor seizure test; type: functional, organism-based; parameters: dose 100 mg/kg
[22] = Neurotoxicity in ip dosed Mus musculus CF1 albino (mouse) assessed as minimal motor impairment measured at 0.25 hr by rotorod test; type: toxicity, organism-based; details: in vivo
[23] = test system: Mus musculus; assay: Anticonvulsant activity in ip dosed Mus musculus CF1 albino (mouse) assessed as protection against subcutaneous metrazol-induced seizures measured at 0.25 hr; type: functional
[24] = test system: Mus musculus; assay: Anticonvulsant activity in ip dosed Mus musculus CF1 albino (mouse) assessed as protection against maximal electroshock-induced seizures measured at 0.25 hr; type: functional
[25] = Protective index, ratio of TD50 for neurotoxicity in ip dosed Mus musculus CF1 albino (mouse) to ED50 for protection against subcutaneous metrazol-induced seizures in ip dosed Mus musculus CF1 albino (mouse); type: toxicity, organism-based; details: in vivo, read-out: Ratio TD50/ED50
[26] = Protective index, ratio of TD50 for neurotoxicity in ip dosed Mus musculus CF1 albino (mouse) to ED50 for protection against maximal electroshock-induced seizures in ip dosed Mus musculus CF1 albino (mouse); type: toxicity, organism-based; details: in vivo, read-out: Ratio TD50/ED50
[27] = test system: Mus musculus; assay: Anticonvulsant activity in ip dosed Mus musculus CF1 albino (mouse) assessed as protection against electrically-induced seizure measured at 0.25 hr by 6Hz psychomotor seizure test; type: functional

Structure (SMILES)	Activity [1]	Activity [2]	Activity [3]	Activity [4]	Activity [5]	Activity [6]	Activity [7]	Activity [8]	Activity [9]	Activity [10]	Activity [11]	Activity [12]	Activity [13]	Activity [14]	Activity [15]	Activity [16]	Activity [17]	Activity [18]	Activity [19]	Activity [20]	further results
CC(C)Oc1ccc(-c2nc(-c3ccccc3)c[nH]2)cc1	Active	Toxic	Active	Active	inactive	inactive	inactive	Non-toxic	inactive	inactive	Non-toxic	inactive	inactive	Active	inactive	Non-toxic	Non-toxic	inactive	inactive	–	–
CC(C)c1ccc(-c2nc(-c3ccccc3)c[nH]2)cc1	inactive	Non-toxic	inactive	Active	inactive	inactive	–	Non-toxic	inactive	inactive	Non-toxic	inactive	inactive	Active	inactive	Non-toxic	Non-toxic	–	inactive	Non-toxic	Activity [21]: inactive
COc1ccc(-c2nc(-c3cccc(Cl)c3)c[nH]2)cc1	inactive	Non-toxic	inactive	Active	inactive	inactive	–	Non-toxic	inactive	–	Non-toxic	inactive	inactive	Active	inactive	Non-toxic	Non-toxic	inactive	inactive	Non-toxic	TD50 at 0.25 h [22]: 390 mg/kg; ED50 [23]: 103 mg/kg; ED50 [24]: 82.1 mg/kg; selectivity ratio [25]: 3.8; selectivity ratio [26]: 4.7; Activity [21]: inactive
CCOc1ccc(-c2nc(-c3ccccc3)c[nH]2)cc1	inactive	Non-toxic	–	inactive	inactive	inactive	inactive	Non-toxic	inactive	inactive	Non-toxic	inactive	inactive	Active	inactive	Non-toxic	Non-toxic	inactive	–	Non-toxic	Activity [21]: inactive
O=C1NC(=O)C(c2ccccc2)(c2ccccc2)N1 [PHENYTOIN]	–	–	–	–	–	–	–	–	–	–	–	–	–	–	–	–	–	–	–	–	ED50 [27]: 27.5 mg/kg; TD50 at 0.25 h [22]: 35.6 mg/kg
COc1ccc(-c2nc(-c3ccccc3)c[nH]2)cc1	inactive	Toxic	Active	Active	inactive	Active	inactive	Non-toxic	inactive	–	Non-toxic	inactive	inactive	Active	inactive	Non-toxic	Non-toxic	inactive	inactive	Toxic	ED50 [23]: 142 mg/kg; ED50 [24]: 46.8 mg/kg; selectivity ratio [25]: 1.4; selectivity ratio [26]: 4.3
COc1ccc(-c2nc(-c3ccc(Cl)cc3)c[nH]2)cc1	inactive	Non-toxic	–	Active	inactive	inactive	inactive	Non-toxic	inactive	Active	Non-toxic	inactive	inactive	Active	inactive	Non-toxic	Non-toxic	inactive	inactive	Non-toxic	TD50 at 0.25 h [22]: 238 mg/kg; ED50 [23]: 158 mg/kg; ED50 [24]: 68.8 mg/kg; selectivity ratio [25]: 1.5; selectivity ratio [26]: 3.5

From ChEMBL document CHEMBL3045552, “In vivo screening of diarylimidazoles as anticonvulsant agents” (Med Chem Res, 2012)
